Reference: patent publication US5935966A, “Pyrimidine carboxylates and related compounds and methods for treating inflammatory conditions” (Signal Pharmaceuticals, Inc., priority 1996, dated 1999)
Like-named read-outs stand apart in the source and are kept apart here.

Test system: NFκB and AP-1
Assay: NFκB and AP-1 luciferase reporter assays in stable Jurkat T-cells (PMA/PHA stimulated)
Format: cell-based, human
Conditions: average of NFκB and AP-1 assays, read-out: ICm (average of the measurements obtained from the NFκB and AP-1 assays)
Source text: Stable human Jurkat T-cells containing an NFκB binding site (from the MHC promoter) fused to a minimal SV-40 promoter driving luciferase expression were used in this experiment. Cells were split to 3×10^5 cells/mL every 2-3 days (cell concentration should not exceed 1×10^6 cells/mL to keep the cells proliferating in log phase). These cells were counted, resuspended in fresh medium containing 10% Serum-Plus at a density of 1×10^6 cells/mL and plated in 96 well round bottom plates (200 μ.LAMBDA. per well) 18 hours prior to starting the experiment.
Compounds of this invention, dissolved in dimethyl sulfoxide (3.3, 0.33 and 0.03 μg/mL), were then added to the 96 well plates containing the cells and the plates were incubated for 0.5 h at 37° C. Then 50 ng/mL of phorbol 12-myristate-13-acetate (PMA) and 1 μg/mL of phytohemagglutinin (PHA) were added to each well and the cells were incubated for an additional 5 h at 37° C. The plates were centrifuged at 2200 RPM for 3 minutes at room temperature and then the medium was removed. To each well was added 60 μL of cell lysis buffer and the plates were left at room temperature for 0.25 h. Then 40 μL of each cell extract was transferred to a black 96 well plate and 50 μL of luciferase substrate buffer was added. Luminescence was immediately measured using a Packard TopCount.
For AP-1, the assay was run as described above for NFκB except stable Jurkat T-cells were used that contained a collagenase promoter driving luciferase expression. In addition, the concentration of PMA used was 5 ng/mL.
The IC50 values reported in Table 3 are the average of the measurements obtained from the NFκB and AP-1 assays described above.

Compound	IC50 (Homo sapiens)	IC50
CCOC(=O)c1cnc(N(C)N2C(=O)C=C(C)C2=O)nc1-c1ccc(C)s1 [Example 92, ETHYL 2-[N-(1'-AMINOCITRACONAMIDO-N-METHYL)]-4-[2'-(5'-METHYLTHIENYL)]PYRIMIDINE-5-CARBOXYLATE]	0.3 µM	
CCOC(=O)c1cnc(N(Cc2ccccc2)N2C(=O)C=C(C)C2=O)nc1C(F)(F)F [Example 84, ETHYL 2-[N-(1'-AMINOCITRACONAMIDO-N-BENZYL)]-4-TRIFLUOROMETHYLPYRIMIDINE-5-CARBOXYLATE]	0.45 µM	
CCOC(=O)c1cnc(-c2cccc([N+](=O)[O-])c2)nc1NN1C(=O)C=C(C)C1=O [Example 120, ETHYL 4-[N-(1'-AMINOCITRACONAMIDO)]-2-(3'-NITROPHENYL)-PYRIMIDINE-5-CARBOXYLATE]	8 µM	
CCOC(=O)c1cnc(NN2C(=O)C=C(C)C2=O)nc1C1CC1 [Example 108, ETHYL 2-[N-(1'-AMINOCITRACONAMIDO)]-4-CYCLOPROPYLPYRIMIDINE-5-CARBOXYLATE]	1.5 µM	
CC1=CC(=O)N(Nc2nc(-c3cccs3)ncc2-c2cc(C)no2)C1=O [Example 132, 4-[N-(1'-AMINOCITRACONAMIDO)]-5-(3"-METHYLISOXAZOL-5'-YL)-2-(2'"-THIENYL)PYRIMIDINE]	0.19 µM	
CC1=CC(=O)N(Nc2nc(-c3cccs3)ncc2C2=NCCO2)C1=O [Example 140, 4-[N-(1'-AMINOCIACONAMIDO)]-5-(4",5"-DIHYDRO-2"-OXAZOLYL)-2-(2'"-THIENYL)PYRIMIDINE]	0.2 µM	
COC(=O)c1cnc(NN2C(=O)C=C(C)C2=O)nc1-c1cccs1 [Example 83, METHYL 2-[N-(1'-AMINOCITRACONAMIDO)]-4-(2'-THIENYL)PYRIMIDINE-5-CARBOXYLATE]	0.08 µM	
CCOC(=O)c1cnc(N(C)N2C(=O)C=C(C)C2=O)nc1-c1nccs1 [Example 106, ETHYL 2-[N-(1'-AMINOCITRACONAMIDO)-N-METHYL]-4-(2'-THIAZOLYL)PYRIMIDINE-5-CARBOXYLATE]	1.7 µM	
CCOC(=O)c1cnc(N(C(=O)Cc2ccccc2)N2C(=O)C=C(C)C2=O)nc1C(F)(F)F [Example 97, ETHYL 2-[N-(1'-AMINOCITRACONAMIDO)-N-(1-OXO-2"-PHENYLETHYL]-4-TRIFLUOROMETHYLPYRIMIDINE-5-CARBOXYLATE]	0.9 µM	
CCOC(=O)c1cnc(-c2cccs2)nc1N(C)N1C(=O)C=C(C)C1=O [Example 123, ETHYL 4-[N-(1'-AMINOCITRACONAMIDO)-N-METHYL]-2-(2'-THIENYL)-PYRIMIDINE-5-CARBOXYLATE]	0.8 µM	
CCOC(=O)c1cnc(NN2C(=O)C=C(C)C2=O)nc1-c1ccsc1 [Example 88, ETHYL 2-[N-(1'-AMINOCITRACONAMIDO)]-4-(3'-THIENYL)PYRIMIDINE-5-CARBOXYLATE]	0.5 µM	
CCOC(=O)OCc1cnc(NN2C(=O)C=C(C)C2=O)nc1C(F)(F)F [Example 114, 2-[N-(1'-AMINOCITRACONAMIDO)]-5-(ETHOXYMETHYLCARBONATE)-4-TRIFLUOROMETHYLPYRIMIDINE]	1.1 µM	
CCOC(=O)c1cnc(N(C)N2C(=O)C=C(C)C2=O)nc1-c1cccs1 [Example 85, ETHYL 2-[N-(1'-AMINOCITRACONAMIDO-N-METHYL)]-4-(2'-THIENYL)PYRIMIDINE-5-CARBOXYLATE]	0.02 µM	
CC1=CC(=O)N(Nc2ncc(C(=O)OC(C)(C)C)c(C(F)(F)F)n2)C1=O [Example 79, t-BUTYL 2-[N-(1'-AMINOCITRACONAMIDO)]-4-TRIFLUOROMETHYLPYRIMIDINE-5-CARBOXYLATE]	0.2 µM	
CCOC(=O)c1cnc(C)nc1NN1C(=O)C=C(C)C1=O [Example 118, ETHYL 4-[N-(1'-AMINOCITRACONAMIDO)]-2-METHYLPYRIMIDINE-5-CARBOXYLATE]	17 µM	
CCOC(=O)c1cnc(-c2ccccc2)nc1N(C)N1C(=O)C=C(C)C1=O [Example 116, ETHYL-4-[N-(1'-AMINOCITRACONAMIDO)-N-METHYL]-2-PHENYLPYRIMIDINE-5-CARBOXYLATE]	1.4 µM	
CCc1nc(N(C)N2C(=O)C=C(C)C2=O)ncc1COC [Example 112, 2-[N-(1'-AMINOCITRACONAMIDO)-N-METHYL]-4-ETHYL-5-(METHOXYMETHYL)PYRIMIDINE]	0.6 µM	
CCOC(=O)c1cnc(NN2C(=O)C=C(C)C2=O)nc1-c1nccs1 [Example 105, ETHYL 2-[N-(1'-AMINOCITRACONAMIDO)]-4-(2'-THIAZOLYL)PYRIMIDINE-5-CARBOXYLATE]	2.4 µM	
CCOC(=O)c1cnc(NN2C(=O)C(CC)=C(CC)C2=O)nc1C(F)(F)F [Example 41, ETHYL 2-[N-(1'-AMINO-3',4'-DIETHYLMALEIMIDO)]-4-TRIFLUOROMETHYLPYRIMIDINE-5-CARBOXYLATE]		3.9 µM

Compound	IC50 (Homo sapiens)	IC50
CCOC(=O)c1cnc(N(C(=O)c2ccccc2)N2C(=O)C=C(C)C2=O)nc1C(F)(F)F [Example 100, ETHYL 2-[N-(1'-AMINOCITRACONAMIDO)-N-BENZOYL]-4-TRIFLUOROMETHYLPYRIMIDINE-5-CARBOXYLATE]	0.8 µM	
CCc1nc(N(C)N2C(=O)C=C(C)C2=O)ncc1-c1nc(C)co1 [Example 126, 2-[N-(1'-AMINOCITRACONAMIDO)-N-METHYL]-4-ETHYL-5-[2"-(4"-METHYL)OXAZOLYL]PYRIMIDINE]	1 µM	
CCOC(=O)c1cnc(N(C)N2C(=O)C=C(C)C2=O)nc1-c1ccsc1 [Example 89, ETHYL 2-[N-(1'-AMINOCITRACONAMIDO-N-METHYL)]-4-(3-THIENYL)PYRIMIDINE-5-CARBOXYLATE]	0.2 µM	
CCOC(=O)c1cnc(NN2C(=O)C=C(C)C2=O)nc1-c1ccco1 [Example 91, ETHYL 2-[N-(1'-AMINOCITRACONAMIDO)]-4-(2'-FURANYL)PYRIMIDINE-5-CARBOXYLATE]	1.1 µM	
CCOC(=O)c1cnc(NN2C(=O)C=C(c3ccccc3)C2=O)nc1C(F)(F)F [Example 40, ETHYL 2-[N-(1'-AMINO-3'-PHENYLMALEIMIDO)]-4-TRIFLUOROMETHYLPYRIMIDINE-5-CARBOXYLATE]	1 µM	
CCc1nc(NN2C(=O)C=C(C)C2=O)ncc1C(=O)c1ccccc1 [Example 101, 5-BENZOYL 2-[N-(1'-AMINOCITRACONAMIDO)]-4-ETHYLPYRIMIDINE]	0.6 µM	
CCCC(=O)N(c1ncc(C(=O)OCC)c(C(F)(F)F)n1)N1C(=O)C=C(C)C1=O [Example 95, ETHYL 2-[N-(1'-AMINOCITRACONAMIDO-N-BUTANOYL)]-4-TRIFLUOROMETHYLPYRIMIDINE-5-CARBOXYLATE]	0.3 µM	
CCOC(=O)c1cnc(NN2C(=O)C=C(C)C2=O)nc1-c1cc2ccccc2s1 [Example 93, ETHYL 2-[N-(1'-AMINOCITRACONAMIDO)]-4-(2'-THIANAPHTHYL)PYRIMIDINE-5-CARBOXYLATE]	0.8 µM	
CCOC(=O)c1cnc(N(C(C)=O)N2C(=O)C=C(C)C2=O)nc1C(F)(F)F [Example 75, ETHYL 2-[N-ACETYL-N-(1'-AMINOCITRACONAMIDO)]-4-TRIFLUOROMETHYLPYRIMIDINE-5-CARBOXYLATE]	0.4 µM	
CCOC(=O)c1cnc(N(C)N2C(=O)C=C(C)C2=O)nc1-c1cc2ccccc2s1 [Example 104, ETHYL 2-[N-(1'-AMINOCITRACONAMIDO)]-4-(2'-THIANAPHTHYL)PYRIMIDINE-5-CARBOXYLATE]	0.2 µM	
CCOC(=O)c1cnc(-c2ccccc2)nc1NN1C(=O)C=C(C)C1=O [Example 115]	0.03 µM	
COC(=O)c1cnc(N(C)N2C(=O)C=C(C)C2=O)nc1C(F)(F)C(F)(F)F [Example 78, METHYL 2-[N-(1'-AMINOCITRACONAMIDO)]-N-METHYL]-4-PENTAFLUOROETHYLPYRMIDINE-5-CARBOXYLATE]	0.15 µM	
CCOC(=O)c1cnc(N(C)N2C(=O)C=C(C)C2=O)nc1-c1ccc(Cl)s1 [Example 68, ETHYL 2-[N-(1'-AMINOCITRACONAMIDO)-N-METHYL]-4-[2'-(5"-HLOROTHIENYL]PYRIMIDINE-5-CARBOXYLATE]	0.4 µM	
CCOC(=O)c1cnc(Cc2ccc(Cl)c(Cl)c2)nc1NN1C(=O)C=C(C)C1=O [Example 124, ETHYL 4-[N-(1'-AMINOCITRACONAMIDO)]-2-(3',4'-DICHLOROBENZYL)-PYRIMIDINE-5-CARBOXYLATE]	4 µM	
CC1=CC(=O)N(Nc2ncc(C(=O)c3ccccc3)c(C(F)(F)F)n2)C1=O [Example 87, 5-BENZOYL 2-[N-(1'-AMINOCITRACONAMIDO)]-4-TRIFLUOROMETHYLPYRIMIDINE]	0.55 µM	
CCOC(=O)c1cnc(N(C(=O)NC)N2C(=O)C=C(C)C2=O)nc1C(F)(F)F [Example 96, ETHYL 2-[N-(1'-AMINOCITRACONAMIDO)-N-(N'-METHYLCARBOXAMIDYL)]-4-TRIFLUOROMETHYLPYRIMIDINE-5-CARBOXYLATE]	0.7 µM	
CCOC(=O)c1cnc(NN2C(=O)C=C(C)C2=O)nc1COC [Example 98, ETHYL 2-[N-(1'-AMINOCITRACONAMIDO)]-4-METHOXYMETHYL PYRIMIDINE-5-CARBOXYLATE]	6 µM	
CCOC(=O)c1cnc(-c2ccccc2)nc1N(C(C)=O)N1C(=O)C=C(C)C1=O [Example 117, ETHYL 4-[N-ACETYL-N-(1'-AMINOCITRACONAMIDO)]-2-PHENYLPYRIMIDINE-5-CARBOXYLATE]	4 µM	
4-[N-(1'-AMINOCITRACONAMIDO)]-5-(N-METHYL TETRAZOLYL)-2-(2"-THIENYL)PYRIMIDINE [Example 135]		0.12 µM
